# According to patent publication US10563272B2, “Compositions comprising Metarhizium fungi and use thereof as a pesticide” (Cotton Research and Development Corporation, priority 2015, dated 2020):
# How the values were obtained:
# [1] = system: predatory beetles; assay: Bollgard II cotton, Auscott-Togo 2012-13, Field 63 (Experiment 2): predatory beetles; type: in vivo, Coleoptera (Coccinellidae, Melyridae); conditions: 62.5 mL/ha
# Experimental: (§1) Two separate trials (Experiment 1 in Field 77; Experiment 2 in Field 63) were conducted in Bollgard II cotton crops on a commercial cotton farm at Auscott-Togo near Narrabri, New South Wales from 11 Feb. to 5 Mar. 2013 (Field 77) and 19 Feb. to 6 Mar. 2013 (Field 63). The cotton used for each of the trials was at the late squaring to pod setting and maturation stages which was fairly attractive to green mirids.
# (§2) In both trials, the efficacy of the following treatments against green mirids and predatory insects was evaluated: • 1. 250 mL/ha DAT 511 spore in oil (1×10^7 spores/ml); • 2. 500 mL/ha DAT 511 spore in oil (1×10^7 spores/ml); • 3. 1 L/ha DAT 511 spore in oil (1×10^7 spores/ml); • 4. 62.5 mL/ha of fipronil; and • 5. Unsprayed (negative control).
# (§3) The treatment plots were arranged in a randomized complete block design with six replicates per treatment. Each replicated plot measured 40 m wide (40 rows) and 90 m long.
# (§4) Foliar application of each treatment was made on 28 Feb. (for both green mirids and beneficial insects) and 13 Mar. 2012 (for beneficial insects alone) using a ground spray rig fitted with flat fan nozzles to achieve a droplet size of 200 μm. The treatment was applied during the mornings when temperatures were between 20° C. and 28° C. The timing of treatment was based on the IPM Guidelines and recommendations by CottonLogic to use an economic threshold of 0.5 green mirids per metre (Deutscher and Wilson 1999; Khan et al. 2004).
# (§5) Pre-treatment counts of green mirid adults and nymphs, predatory beetles, predatory bugs, predatory lacewings and spiders were made by visual inspection of whole cotton plants. Both adults and nymphs of beneficial insects were counted. Plants were assessed in randomly selected one-metre lengths of row of each replicate (i.e. 6 m per treatment). Post-treatment counts were made 3, 7, 14 and 21 days after treatment. Data are expressed as numbers of green mirid adults and nymphs counted per metre for each treatment.
# [2] = system: predatory bugs; assay: Rate trial on conventional cotton, Norwood 2012 (Example 10): predatory bugs; type: in vivo, Hemiptera (Nabidae, Lygaeidae, Pentatomidae); conditions: P>0.05
# Experimental: This trial was conducted on commercial conventional cotton crops on a farm at Norwood (29° 28'S, 149° 50′E) near Moree, NSW, from 28 Feb. to 21 Mar. 2012. The cotton used for the trial was at the early squaring stage, when it was attractive to green mirids (Khan et al. 2004).
# The efficacy of the following treatments against green mirids and predatory insects were evaluated: • 1. 250 mL/ha DAT 511 spore in oil (1×10^7 spores/ml); • 2. 500 mL/ha DAT 511 spore in oil (1×10^7 spores/ml); • 3. 1 L/ha DAT 511 spore in oil (1×10^7 spores/ml); • 4. 62.5 mL/ha of Fipronil; and • 5. Unsprayed (negative control).
# as §3
# Foliar application of each treatment was made on 28 Feb. (for both green mirids and beneficial insects) and 13 Mar. […]
# Pre-treatment counts of adult and nymph green mirids, predatory beetles, predatory bugs, predatory lacewings and spiders were made by visual inspection of whole cotton plants. Both adults and nymphs of beneficial insects were counted. Plants were assessed in randomly selected one-metre lengths of row of each treatment replicate (i.e. 6 m per treatment). […] Data are expressed as numbers of green mirid adults and nymphs counted per metre per treatment.
# [3] = system: predatory bugs; assay: Rate trial on conventional cotton refuge crops, Undabri 2012 (Example 12): predatory bugs; type: in vivo, Hemiptera (Nabidae, Lygaeidae, Pentatomidae); conditions: DAT 511 500 mL and 1.0 L/ha (P<0.001 versus 250 mL/ha and unsprayed); fipronil 62.5 mL/ha
# Experimental: This trial was conducted using commercial conventional cotton refuge crops at Undabri in Goondiwindi (28° 55'S, 150° 31′E) from 14 Feb. to 6 Mar. 2012.
# The efficacy of the following treatments against green mirids, green vegetable bugs and predatory insects was assessed: • 1. 250 mL/ha DAT 511 spore in oil (1×10^7 spores/ml); • 2. 500 mL/ha DAT 511 spore in oil (1×10^7 spores/ml); • 3. 1 L/ha DAT 511 spore in oil (1×10^7 spores/ml); • 4. 62.5 mL/ha fipronil; and • 5. Unsprayed (negative control).
# The plots were arranged in a randomized complete block design with three replicates per treatment. Each replicated plot measured 8 m (8 rows) wide and 250 m long.
# Foliar applications of each treatment were made on 14 Feb. 2012 using a ground spray rig fitted with flat fan nozzles to achieve a droplet size of 200 μm. All insecticide formulations were water miscible. All treatments were applied using a spray volume of 100 L/ha. The untreated (negative control) plot was left unsprayed and the plot treated with synthetic insecticide received two applications similar to, and on the same date as, the plots treated with the fungus.
# For each replicate, visual counts of adults and nymphs of green mirids, green vegetable bugs (GVB), apple dimpling bugs and predatory insects on whole cotton plants were made in a randomly selected 1 m length of row of cotton plants (i.e. 6 m per treatment). […]
# [4] = system: spiders; assay: Bollgard II cotton, Auscott-Togo 2012-13, Field 77 (Experiment 1): spiders; type: in vivo, Lycosa spp., Oxyopes spp., Salticidae spp., Araneus spp.; conditions: 62.5 mL/ha
# Experimental: as §1, §2, §3, §4, §5
# [5] = system: predatory beetles; assay: Bollgard II cotton, Auscott-Togo 2012-13, Field 77 (Experiment 1): predatory beetles; type: in vivo, Coleoptera (Coccinellidae, Melyridae); conditions: 62.5 mL/ha
# Experimental: as §1, §2, §3, §4, §5
# [6] = system: spiders; assay: Bollgard II cotton, Auscott-Togo 2012-13, Field 63 (Experiment 2): spiders; type: in vivo, Lycosa spp., Oxyopes spp., Salticidae spp., Araneus spp.; conditions: 62.5 mL/ha
# Experimental: as §1, §2, §3, §4, §5
smiles,measurement,setting,value
N#Cc1nn(-c2c(Cl)cc(C(F)(F)F)cc2Cl)c(N)c1[S+]([O-])C(F)(F)F (stereo not shown) [fipronil],No. predatory beetles per meter,[1]; 3 DAT,2.67 ± 0.33 a per meter
same,No. predatory beetles per meter,[1]; 7 DAT,2.33 ± 0.33 a per meter
same,No. predatory beetles per meter,[1]; 14 DAT,0.67 ± 0.33 a per meter
same,No. predatory beetles per meter,[1]; 21 DAT,1.67 ± 0.33 a per meter
same,No. predatory beetles per meter,[1]; pre-spray counts,5.67 ± 0.67ab per meter
same,number of predatory bugs versus unsprayed (control) plots,[2],No significant difference
same,effect on number of predatory bugs per metre,[3],significantly lower
same,No. spiders per meter,[4]; 3 DAT,5.00 ± 1.73 a per meter
same,No. spiders per meter,[4]; 7 DAT,5.33 ± 1.86 a per meter
same,No. spiders per meter,[4]; 14 DAT,9.33 ± 0.67a per meter
same,No. spiders per meter,[4]; 21 DAT,8.67 ± 0.88 a per meter
same,No. spiders per meter,[4]; pre-spray counts,11.67 ± 1.67a per meter
same,No. predatory beetles per meter,[5]; 3 DAT,1.33 ± 0.33 a per meter
same,No. predatory beetles per meter,[5]; 7 DAT,1.33 ± 0.33 a per meter
same,No. predatory beetles per meter,[5]; 14 DAT,1.00 ± 0.58 a per meter
same,No. predatory beetles per meter,[5]; 21 DAT,1.33 ± 0.33 b per meter
same,No. predatory beetles per meter,[5]; pre-spray counts,3.68 ± 0.33 a per meter
same,No. spiders per meter,[6]; 3 DAT,7.33 ± 1.45 a per meter
same,No. spiders per meter,[6]; 7 DAT,4.33 ± 0.67a per meter
same,No. spiders per meter,[6]; 14 DAT,1.33 ± 0.33a per meter
same,No. spiders per meter,[6]; 21 DAT,3.67 ± 0.33 a per meter
same,No. spiders per meter,[6]; pre-spray counts,11.67 ± 1.61 a per meter
